Laboratory results taken from patent publication US20240116985A1, “STAPLED PEPTIDES AND METHODS THEREOF” (priority 2020, published 2024).
In brackets after ≈: the same amount, converted by molar mass. Like-named read-outs stand apart in the source and are kept apart here.

What was measured:
CHI Log D procedure = assay type: physicochemical; settings: for CHI Log D: pH 7.4
[1] = biological target: T1, full-length beta-Catenin (Uniprot ID P35222) (Homo sapiens, UniProt P35222); assay: Fluorescence polarization IC50 (beta-catenin / 5FAM-TCF4 10-53 competition); assay type: binding
T1 construct: 10 nM full-length beta-Catenin (Uniprot ID P35222)
T1 sequence (P35222 1-781): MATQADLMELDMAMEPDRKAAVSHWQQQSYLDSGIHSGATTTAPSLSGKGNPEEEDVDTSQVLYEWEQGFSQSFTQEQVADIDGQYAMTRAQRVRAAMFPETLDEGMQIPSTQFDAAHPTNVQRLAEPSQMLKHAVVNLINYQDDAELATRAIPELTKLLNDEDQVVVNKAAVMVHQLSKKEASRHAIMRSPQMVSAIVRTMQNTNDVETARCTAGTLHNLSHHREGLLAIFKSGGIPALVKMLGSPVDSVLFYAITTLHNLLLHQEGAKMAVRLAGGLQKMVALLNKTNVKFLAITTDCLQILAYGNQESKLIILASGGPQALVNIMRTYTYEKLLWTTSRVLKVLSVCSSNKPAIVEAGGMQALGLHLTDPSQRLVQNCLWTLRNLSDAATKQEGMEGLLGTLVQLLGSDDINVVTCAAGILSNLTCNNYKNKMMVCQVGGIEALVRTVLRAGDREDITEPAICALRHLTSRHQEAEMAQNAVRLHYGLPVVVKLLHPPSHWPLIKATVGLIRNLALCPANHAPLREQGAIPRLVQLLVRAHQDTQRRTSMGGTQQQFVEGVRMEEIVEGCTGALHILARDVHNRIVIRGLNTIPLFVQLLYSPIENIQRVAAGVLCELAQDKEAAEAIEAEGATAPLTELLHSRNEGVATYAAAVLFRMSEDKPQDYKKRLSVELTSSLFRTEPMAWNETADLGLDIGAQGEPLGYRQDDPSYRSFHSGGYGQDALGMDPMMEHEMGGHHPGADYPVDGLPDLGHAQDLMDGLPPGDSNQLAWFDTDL

Solubility in PBS = assay type: physicochemical
Outline: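 Read-out is the HPLC peak area of the supernatant from ultracentrifuged PBS solution, scaled against a 50 μM peptide DMSO injection; value reported as [(PBS area)/(DMSO area)]*50 uM.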

[2] = Table E2-1, read-out: beta-Catenin FP IC50
[3] = fluorescence polarization, beta-catenin, read-out: FP EC50
[4] = fluorescence polarization, read-out: beta-Catenin FP IC50

SMILES | chromatographic logD (CHI Log D procedure; pH 7.4, CHI Log D) | IC50 ([1]; read-out: beta-Catenin FP IC50) [µM] | Solubility (Solubility in PBS) [µM] | CHI Log D (CHI Log D procedure) | IC50 [1, 4] [µM] | Solubility (Solubility in PBS; Solubility (uM)) [µM] | other results
CC(=O)N1CCC[C@]12CC=CCCCC1(CCCC=CCCCOC(=O)N3CC[C@@](C(=O)N[C@@H](Cc4ccccc4F)C(=O)N[C@@H](Cc4csc5ccccc45)C(=O)N[C@@H](CO)C(N)=O)(C3)NC(=O)[C@H](CO)NC(=O)[C@H](Cc3ccccc3)NC(=O)[C@H](C)NC(=O)[C@H](C)NC(=O)[C@H](CC(=O)O)NC(=O)[C@H](CC(=O)O)NC1=O)NC(=O)[C@H](CC1CCCCC1)NC(=O)[C@H](CC(=O)O)NC2=O (stereo partly drawn) [I-1102, Ac-PL3-Asp-Cha-B5-Asp-Asp-Ala-Ala-Phe-Ser-PyrS2-2FF-BztA-Ser-NH2] | 2.39 | 0.016 | 10 (≈ 18.9 µg/mL) |  |  |  | 
CC(=O)N1CCC[C@]12CC=CCCCC1(CCCC=CCCCCCC[C@@](C)(C(=O)N[C@@H](Cc3ccccc3)C(=O)N[C@@H](Cc3c[nH]c4ccccc34)C(=O)N[C@@H](CCC(N)=O)C(N)=O)NC(=O)[C@H](C(C)C)NC(=O)[C@H](Cc3ccccc3)NC(=O)[C@H](C)NC(=O)[C@H](C)NC(=O)[C@H](Cc3cccnc3)NC(=O)[C@H](CC(=O)O)NC1=O)NC(=O)[C@H](C)NC(=O)[C@H](CC(=O)O)NC2=O (stereo partly drawn) [I-271, Ac-PL3-Asp-Ala-B5-Asp-3PyrA-Ala-Ala-Phe-Val-S8-Phe-Trp-Gln-NH2] | 2.44 |  | 10 (≈ 18.1 µg/mL) |  |  |  | IC50 [1, 2]: 5 µM
CC(=O)N1CCC[C@]12CC=CCCCC1(CCCC=CCCCOC(=O)N3CC[C@@](C(=O)N[C@@H](Cc4ccsc4)C(=O)N[C@@H](Cc4csc5ccccc45)C(=O)N[C@@H](CCC(N)=O)C(N)=O)(C3)NC(=O)[C@H](CC(N)=O)NC(=O)[C@H](Cc3ccccc3)NC(=O)[C@H](C)NC(=O)[C@H](C)NC(=O)[C@H](Cc3cccc(C(=O)O)c3)NC(=O)[C@H](CC(=O)O)NC1=O)NC(=O)[C@H](CC(C)(C)C)NC(=O)[C@H](CC(=O)O)NC2=O (stereo partly drawn) [I-977, Ac-PL3-Asp-Npg-B5-Asp-3COOHF-Ala-Ala-Phe-Asn-PyrS2-3Thi-BztA-Gln-NH2] |  | 0.875 | 46 (≈ 91.7 µg/mL) | 1.87 |  |  | IC50 [1, 3]: 0.367 µM
CC(=O)N1CCC[C@]12CC=CCCCC1(CCCC=CCCCCCC[C@@](C)(C(=O)N[C@@H](Cc3ccccc3)C(=O)N[C@@H](Cc3csc4ccccc34)C(=O)N[C@@H](CCC(N)=O)C(N)=O)NC(=O)[C@H](CCC(N)=O)NC(=O)[C@H](Cc3ccccc3)NC(=O)[C@H](C)NC(=O)[C@H](C)NC(=O)[C@H](CCC(=O)O)NC(=O)[C@H](CC(=O)O)NC1=O)NC(=O)[C@H](C(C)C)NC(=O)[C@H](CC(=O)O)NC2=O (stereo partly drawn) [I-410, Ac-PL3-Asp-Val-B5-Asp-Glu-Ala-Ala-Phe-Gln-S8-Phe-BztA-Gln-NH2] | 2.26 |  | 50 (≈ 93.5 µg/mL) |  | 0.05 |  | 
CC(=O)N1CCC[C@]12CC=CCCCC1(CCCC=CCCCOC(=O)N3CC[C@@](C(=O)N[C@@H](Cc4ccsc4)C(=O)N[C@@H](Cc4csc5ccccc45)C(=O)N[C@@H](CCC(N)=O)C(=O)N[C@@H](CCCCNC(=O)CN4CCOCC4)C(N)=O)(C3)NC(=O)[C@H](CC(N)=O)NC(=O)[C@H](Cc3ccccc3)NC(=O)[C@H](C)NC(=O)[C@H](C)NC(=O)[C@H](CC(=O)O)NC(=O)[C@H](CC(=O)O)NC1=O)NC(=O)[C@H](CC(C)(C)C)NC(=O)[C@H](CC(=O)O)NC2=O (stereo partly drawn) [I-905, Ac-PL3-Asp-Npg-B5-Asp-Asp-Ala-Ala-Phe-Asn-PyrS2-3Thi-BztA-Gln-[Morph Ac]Lys-NH2] | 1.92 | 0.008 |  |  |  | 46 (≈ 100 µg/mL) | 
CC(=O)N1CCC[C@]12CC=CCCCC1(CCCC=CCCCOC(=O)N3CC[C@@](C(=O)N[C@@H](Cc4ccccc4Cl)C(=O)N[C@@H](Cc4csc5ccccc45)C(=O)N[C@@H](CO)C(N)=O)(C3)NC(=O)[C@H](CC(C)C)NC(=O)[C@H](Cc3ccccc3)NC(=O)[C@H](C)NC(=O)[C@H](C)NC(=O)[C@H](CC(=O)O)NC(=O)[C@H](CC(=O)O)NC1=O)NC(=O)[C@H](Cc1cccc3ccccc13)NC(=O)[C@H](CC(=O)O)NC2=O (stereo partly drawn) [I-1116, Ac-PL3-Asp-1NapA-B5-Asp-Asp-Ala-Ala-Phe-Leu-PyrS2-2C1F-BztA-Ser-NH2] | 2.62 | 0.04 |  |  |  | 13 (≈ 25.7 µg/mL) | 
CC(=O)N1CCC[C@]12CC=CCCCC1(CCCC=CCCCOC(=O)N3CC[C@@](C(=O)N[C@@H](Cc4ccsc4)C(=O)N[C@@H](Cc4csc5ccccc45)C(=O)N[C@@H](Cc4ccc(O)cc4)C(N)=O)(C3)NC(=O)[C@H](CC(N)=O)NC(=O)[C@H](Cc3ccccc3)NC(=O)[C@H](C)NC(=O)[C@H](C)NC(=O)[C@H](CN(CC(=O)O)CC(F)(F)F)NC(=O)[C@H](CC(=O)O)NC1=O)NC(=O)[C@H](CC(C)(C)C)NC(=O)[C@H](CC(=O)O)NC2=O (stereo partly drawn) [I-953, Ac-PL3-Asp-Npg-B5-Asp-TfeGA-Ala-Ala-Phe-Asn-PyrS2-3Thi-BztA-Tyr-NH2] |  | 1.46 | 47 (≈ 97 µg/mL) | 2.04 |  |  | IC50 [1, 3]: 1.46 µM
CC(=O)N1CCC[C@]12CC=CCCCC1(CCCC=CCCCCCC[C@@](C)(C(=O)N[C@@H](Cc3ccccc3)C(=O)N[C@@H](Cc3csc4ccccc34)C(=O)N[C@@H](Cc3c[nH]cn3)C(N)=O)NC(=O)[C@H](CC(N)=O)NC(=O)[C@H](Cc3ccccc3)NC(=O)[C@H](C)NC(=O)[C@H](C)NC(=O)[C@H](CC(=O)O)NC(=O)[C@H](CC(=O)O)NC1=O)NC(=O)[C@H](CCC(C)C)NC(=O)[C@H](CC(=O)O)NC2=O (stereo partly drawn) [I-584, Ac-PL3-Asp-hLeu-B5-Asp-Asp-Ala-Ala-Phe-Asn-S8-Phe-BztA-His-NH2] |  |  | 21 (≈ 39.4 µg/mL) | 2.635 | 0.033 |  | IC50 ([1]; read-out: FP EC50): 0.033 µM
COC[C@@H]1NC(=O)[C@H](CC(=O)O)NC(=O)[C@]2(CC=CCCCC3(CCCC=CCCCCCC[C@@](C)(C(=O)N[C@@H](Cc4ccccc4)C(=O)N[C@@H](Cc4csc5ccccc45)C(=O)N[C@@H](CCC(N)=O)C(N)=O)NC(=O)[C@H](C(C)C)NC(=O)[C@H](Cc4ccccc4)NC(=O)[C@H](C)NC(=O)[C@H](C)NC(=O)[C@H](CC(=O)O)NC(=O)[C@H](CC(=O)O)NC3=O)NC1=O)CCCN2C(C)=O (stereo partly drawn) [I-345, Ac-PL3-Asp-S(OMe)-B5-Asp-Asp-Ala-Ala-Phe-Val-S8-Phe-BztA-Gln-NH2] | 2.14 |  |  |  |  | 49 (≈ 89.6 µg/mL) | IC50 [1, 2]: 0.134 µM
CC(=O)N1CCC[C@]12CC=CCCCC1(CCCC=CCCCCCC[C@@](C)(C(=O)N[C@@H](Cc3ccccc3Cl)C(=O)N[C@@H](Cc3csc4ccccc34)C(=O)N[C@@H](CCC(N)=O)C(N)=O)NC(=O)[C@H](CO)NC(=O)[C@H](Cc3ccccc3)NC(=O)[C@H](C)NC(=O)[C@H](C)NC(=O)[C@H](CN(CC(=O)O)CC(F)(F)F)NC(=O)[C@H](CC(=O)O)NC1=O)NC(=O)[C@H](CC(C)(C)C)NC(=O)[C@H](CC(=O)O)NC2=O (stereo partly drawn) [I-995, Ac-PL3-Asp-Npg-B5-Asp-TfeGA-Ala-Ala-Phe-Ser-S8-2C1F-BztA-Gln-NH2] | 2.8 | 0.055 |  |  |  | 34 (≈ 67.6 µg/mL) | 
CC(=O)N1CCC[C@]12CC=CCCCC1(CCCC=CCCCCCC[C@@](C)(C(=O)N[C@@H](CC3CCCC3)C(=O)N[C@@H](Cc3csc4ccccc34)C(=O)N[C@@H](CCC(N)=O)C(N)=O)NC(=O)[C@H](C(C)C)NC(=O)[C@H](Cc3ccccc3)NC(=O)[C@H](C)NC(=O)[C@H](C)NC(=O)[C@H](CCC(=O)O)NC(=O)[C@H](CC(=O)O)NC1=O)NC(=O)[C@H](C)NC(=O)[C@H](CC(=O)O)NC2=O (stereo partly drawn) [I-393, Ac-PL3-Asp-Ala-B5-Asp-Glu-Ala-Ala-Phe-Val-S8-CypA-BztA-Gln-NH2] |  |  | 10 (≈ 18 µg/mL) |  | 1.95 |  | logD (CHI Log D procedure; pH 7.4, CHI Log D): 2.64
CC[C@H](C)[C@@H]1NC(=O)[C@H](CC(=O)O)NC(=O)[C@]2(CC=CCCCC3(CCCC=CCCCCCC[C@@](C)(C(=O)N[C@@H](Cc4ccsc4)C(=O)N[C@@H](Cc4csc5ccccc45)C(=O)N[C@@H](Cc4c[nH]cn4)C(N)=O)NC(=O)[C@H](CC(N)=O)NC(=O)[C@H](Cc4ccccc4)NC(=O)[C@H](C)NC(=O)[C@H](C)NC(=O)[C@H](CC(=O)O)NC(=O)[C@H](CC(=O)O)NC3=O)NC1=O)CCCN2C(C)=O (stereo partly drawn) [I-556, Ac-PL3-Asp-Ile-B5-Asp-Asp-Ala-Ala-Phe-Asn-S8-3Thi-BztA-His-NH2] |  |  | 39 (≈ 72.9 µg/mL) | 2.435 | 0.02 |  | IC50 ([1]; read-out: FP EC50): 0.02 µM
CCNC(=O)C[C@@H]1NC(=O)C2(CCCC=CCCCCCC[C@@](C)(C(=O)N[C@@H](Cc3ccccc3)C(=O)N[C@@H](Cc3csc4ccccc34)C(=O)N[C@@H](CCC(N)=O)C(N)=O)NC(=O)[C@H](C(C)C)NC(=O)[C@H](Cc3ccccc3)NC(=O)[C@H](C)NC(=O)[C@H](C)NC(=O)[C@H](CC(=O)O)NC1=O)CCCC=CC[C@]1(CCCN1C(C)=O)C(=O)N[C@@H](CC(=O)O)C(=O)N[C@@H](C)C(=O)N2 (stereo partly drawn) [I-536, Ac-PL3-Asp-Ala-B5-[NHEt]AsnR-Asp-Ala-Ala-Phe-Val-S8-Phe-BztA-Gln-NH2] | 2.75 |  |  |  | 4.47 | 23 (≈ 42 µg/mL) | 
